Tests used:
[1] = test system: brain ornithine decarboxylase; assay: Induction of brain ornithine decarboxylase after intracerebral injection, 4 day old rats; type: in vivo, rat; settings: 6 hours
Protocol: The in vivo activity of IGF-I, IGF-II or synthetic peptide derivatives of these molecules was tested using a biochemical marker for CNS neurotrophic activity, the induction of brain ornithine decarboxylase. The induction (i.e. increased activity) of ornithine decarboxylase has been reported to be a general marker for the actions of a variety of trophic factors. (Schwartz et al., Dev. Brain Res. 1:403-413 (1981); Kanje et al., Brain Res. 381:24-28 (1986); Russell et al., Life Sci. 19:1297-1306 (1976); MacDonnell et al. Proc. Natl. Acad. Sci. USA 74, 4681-4684 (1977); […] et al. Proc. Natl. Acad. Sci. USA 82, 4365-4368 (1985)). Sprague-Dawley rats, 4 days old, were injected intracerebrally (in the area of the lateral ventricle) with 5 μl of 0.1 M phosphate-buffered saline (PBS) containing IGF-I, IGF-II or a synthetic peptide derivative (1.25-2.5 μg dose, with 6 animals per treatment group). After 6 hours, the brains were removed, and ornithine decarboxylase was assayed essentially as described by Lewis et al., Proc. Natl. Acad. Sci. USA 75:1021-1023 (1978).

[2] = test system: cultured rat septal cells; assay: ChAT activity in cultured rat septal cells; type: cell-based
Protocol: The effect of simultaneous administration of IGF-I and NGF on ChAT activity was assayed in cultured septal neurons. ChAT is the initial enzyme in the synthesis of the neurotransmitter, acetylcholine, and is a specific biochemical marker for cholinergic neurons. Assay of this enzyme may be used as an indication of the effects of IGF (and other factors) on the survival of cholinergic neurons and/or regulation of this enzyme. […] In FIG. 9 open squares represent IGF-I, diamonds indicate IGF-I+2 nM NGF, open circles indicate 2 nM NGF, and the horizontal line at 403 DPM represents uninduced cells. A similar additive effect was seen when saturating concentrations of IGF-I were combined with saturating or sub-maximal concentrations of NGF, as shown in FIG. 10. In FIG. 10 open squares indicate NGF, diamonds indicate NGF+25 nM IGF-I, open circles represent 25 nM IGF-I, and the horizontal line at 554 DPM represents uninduced cells.
Cultured rat septal cell experiments were performed generally as described in Hartikku and Hefti, J. Neuroscience, 8:2967-2985 […], Hayashi and Patel, Dev. Brain Res., 36:109-120 (1987), and as follows.
(§1) Dissociated cell cultures of the septal region of day 17 embryonic rats were prepared by standard techniques known to those skilled in the art, using enzymatic (Dispase, Collaborative Research) dissociation of tissue. Cells were seeded (plated) at 6×10^5 cells/cm^2 in poly-1-ornithine-laminin coated plastic tissue culture wells, and cultured in serum-free N2 medium (Bottenstein et al., 1978) for 5 days without feeding. Control (uninduced) cultures received no added growth factors; induced cultures received the concentrations of IGF-I and NGF indicated in FIGS. 9 and 10 at the time of plating. NGF is commercially available. ChAT was assayed by the method described in McManaman, et al. Dev. Biol. 125:311-320 (1988). AChE staining was performed according to the method of Hartikka and Hefti, J. Neuroscience 8:2967-2985 (1988).

septal cultures = assay: Number of AChE positive cells in rat septal cultures; type: cell-based; settings: 100 nM IGF-I; 4×10^5 cells/cm^2, medium with 10% bovine calf serum
Protocol: as §1
We have shown that under specific culture conditions (4×10^5 cells/cm^2 in the presence of medium containing 10% bovine calf serum), IGF-I increased the number of AChE positive cells by 3-4 fold over control, growth factor-free cultures, FIG. 12.

motoneurons = assay: Motoneuron survival in ovo (developmentally regulated motoneuron death); type: in vivo, chick; settings: 5 μg/egg daily onto chorioallantoic membrane, E6 to E9, counted E10
Text: In the spinal cord, as well as in other regions of the nervous system, neurons are over-produced during development, and undergo a process of naturally occurring cell death prior to […] (reviewed in Oppenheim, R. W. 1991, Annu Rev. Neurosci. 14:453-501). During this period, approximately 50% of the motoneurons degenerate and die. Certain neurotrophic agents applied exogenously during this period prevent or retard this form of neuronal death (e.g., partially purified muscle extracts and ciliary neurotrophic factor reduce motor neuron death in chick embryos (McManaman et al., 1990, Neuron 4:891-898; Oppenheim et al. 1991, Science 25:1616-1617).
The IGFs were administered daily onto chorioallantoic membrane (5 μg/egg in a volume of 50 μl) from embryonic day E6 to E9 through a small window cut into the shell of the egg. Control embryos received an equal volume of vehicle (phosphate buffered saline) alone on E10, the embryos were removed, sacrificed and the spinal cords sectioned. Motoneurons (identified morphologically in silver-stained sections) were counted in serial sections from both treated and control embryos. […] The differences between effects produced by the different IGFs used were not statistically significant (Student t test […]).

GPETLCGAELVDALQFVCGDRGFYFNKPTGYGSSS-RRAPQTGIVDECCFRSCDLRRLEMYCAPLKPAKSA [IGF-I]
brain ornithine decarboxylase activity (in words) [1]: dose-dependent increase in brain ornithine decarboxylase activity | ChAT activity % increase over control ([2]; concentration not printed (second part of table)): 44% | ChAT activity % increase over control ([2]; single growth factor 1.3 nM): 20% | ChAT activity % increase over control ([2]; single growth factor 12.5 nM): 50% | ChAT activity % increase over control ([2]; single growth factor 25.0 nM): 37% | increase in number of AChE positive cells over control (septal cultures): 3-4 fold | prevention of developmentally regulated motoneuron death (in words) (motoneurons): partially prevented developmentally regulated motoneuron death

Reference: patent US6723699B1, “Treating disorders by application of insulin-like growth factors and analogs” (Cephalon, Inc., priority 1989, dated 2004)
